The values that follow come from paper PMC11044151, “Development of Half-Sandwich Ru, Os, Rh, and Ir Complexes Bearing the Pyridine-2-ylmethanimine Bidentate Ligand Derived from 7-Chloroquinazolin-4(3H)-one with Enhanced Antiproliferative Activity” (ACS Omega, 2024).

Series [1] has as its system SW620C. As to the kind of experiment: Neutral red uptake antiproliferative assay, MDR line SW620C. In kind it is cell-based, human. The note with it: for IC50: exposure time 72 h, n = 3, ABCG2-overexpressing MDR line; for activity factor IC50(1)/IC50(3a–4d), SW620C: vs corresponding amine (R)-1 or (S)-1, 72 h. The essentials: (§1)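 Cytotoxicity in SW620-derived multidrug-resistant lines, read by neutral red uptake and expressed as percentage of control. SW620M overexpresses ABCC1, SW620D overexpresses ABCB1, and SW620C and SW620Mito overexpress ABCG2.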

Series [2] has as its system SW620Mito. As to the kind of experiment: Neutral red uptake antiproliferative assay, MDR line SW620Mito. In kind it is cell-based, human. To be noted: for IC50: exposure time 72 h, n = 3, ABCG2-overexpressing MDR line; for activity factor IC50(1)/IC50(3a–4d), SW620Mito: vs corresponding amine (R)-1 or (S)-1, 72 h. The essentials: as §1
In series [3] the test system is SW620 cells. As to the kind of experiment: Cell cycle distribution by flow cytometry, SW620. In kind it is cell-based, human. The note with it: concentration equal to IC75 of (S)-1 / (R)-1, mean ± SEM, n = 3; for Cell cycle fraction G1, 24 h / Cell cycle fraction G2/M, 24 h / Cell cycle fraction S, 24 h: SW620, 24 h; for Cell cycle fraction G1, 48 h / Cell cycle fraction G2/M, 48 h / Cell cycle fraction S, 48 h: SW620, 48 h. The essentials: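 SW620 (and resistant SW620E) cells seeded at 10^5/well, exposed to compounds 24 and 48 h, ethanol-fixed, then stained with 75 μM propidium iodide plus RNase A for 30 min at 37 °C. Flow cytometry read-out; phase distribution by the Watson pragmatic algorithm.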
In general terms: A flow cytometer gives signals particle by particle.

Series [4] concerns SW620 cells. As to the kind of experiment: ROS generation, dihydrorhodamine 123 oxidation assay. In kind it is cell-based, human. The note with it: SW620, 1 μM compound, 4 h, DHR123 with 10 μM verapamil; vs control or (R)- and (S)-1. An excerpt:
Metal complexes often induce reactive oxygen species (ROS) generation in cells,[51] which may increase their cytotoxic activity compared to purely organic molecules. To study the impact of the synthesized compounds on ROS production, we have measured the ROS generation in SW620 cells by the dihydrorhodamine 123 (DHR123) oxidation assay (Figure 9). However, there is no correlation between the antiproliferative potential and the ability of a compound to generate ROS.
Dihydrorhodamine 123 oxidation was used as an indicator of intracellular ROS production. For this purpose, SW620 cells were seeded in 6-well plates at a density of 10^5 cells per well. The cells were left overnight (time needed for them to attach to the surface). Then, 1 μM tested compounds were added along with 1 μM DHR123. Additionally, since DHR123 is a substrate of ABCB1 (which may interfere in this assay), 10 μM verapamil, an inhibitor of this protein, was added. The cells were cultured for an additional 4 h at 37 °C, and then the cells were harvested by trypsinization, resuspended in a complete medium, and analyzed using a LSRII flow cytometer (Becton Dickinson) in a FITC channel (530/30 nm). The results are presented as a percentage of control (median fluorescence in the presence of DMSO).

The nature of series [5]: Stability study in the presence of L-cysteine (UV-vis, HPLC-MS). In kind it is physicochemical. The note with it: 20 μM complex, 0.2 mM L-cysteine in water, 0.5 vol % DMSO, followed over 2 h. An excerpt:
(§2) For biological studies, compounds are commonly administered as dimethyl sulfoxide (DMSO) solution to cells cultured in a specific medium such as Dulbecco’s modified Eagle’s medium (DMEM). DMEM consists of numerous organic compounds which may act as ligands for organometallics. Therefore, it is important to know how the compounds behave in such conditions. The two most prominent components of DMEM which may coordinate to half-sandwich complexes are L-cysteine and L-histidine. Both of those amino acids are present in DMEM at 0.2 mM concentration, so we studied how the complexes interact with them using UV–vis spectroscopy and HPLC-MS analysis. The DMSO solutions of complexes were added to the aqueous solution of L-cysteine or L-histidine to achieve a complex concentration of 20 μM while keeping the DMSO concentration at 0.5 vol %. […] HPLC-MS analysis confirmed the formation of an additional peak at τ = 0.95 min with m/z 714 assigned to [M-Cl-PF6 + HCOOH]^+; additionally, the intensity of peaks corresponding to 3c is lower (Figure S26). […] The intensity of absorbance peaks at λ = 287 and λ = 372 nm in the presence of cysteine is decreasing, while the intensity of peaks at λ = 304 and λ = 318 nm is almost intact.
(§3) The stability of 3a–d was studied in the presence of L-cysteine or L-histidine. 3a–d were dissolved in DMSO and added to 0.2 mM aqueous solution of L-cysteine or L-histidine to achieve the complex concentration of 20 μM while keeping the DMSO concentration at 0.5 vol %. UV–vis spectra were recorded over 2 h with 10 min intervals.

A short description of series [6]: Stability study in the presence of L-histidine (UV-vis, HPLC-MS). In kind it is physicochemical. To be noted: 20 μM complex, 0.2 mM L-histidine in water, 0.5 vol % DMSO, followed over 2 h.
From the text: as §2, §3

On to `CC(C)[C@@H](N=Cc1ccccn1)c1nc2cc(Cl)ccc2c(=O)n1Cc1ccccc1.Cc1ccc(C(C)C)cc1.F[P-](F)(F)(F)(F)F.[Cl-].[Ru+2]` [Compound 3a, [(cym)Ru((R)-2)Cl]PF6], for which, in series [1], the IC50 (as a rule, the concentration that inhibits the measured activity by half) turned out to be 4380 nM and the “activity factor IC50(1)/IC50(3a–4d), SW620C” value is on record as “(0.165)”. Further, in series [2], half-maximal inhibition (IC50) was put at 4330 nM and the “activity factor IC50(1)/IC50(3a–4d), SW620Mito” value is reported as “(0.060)”. Moreover, in series [3], the “Cell cycle fraction G1, 24 h” value was 51.9 ± 1.0%; the “Cell cycle fraction G2/M, 24 h” value is 32.5 ± 1.5%; the “Cell cycle fraction S, 24 h” value is 14.9 ± 0.6%; the “Cell cycle fraction G1, 48 h” value is recorded as 44.8 ± 0.7%. In series [3], the “Cell cycle fraction G2/M, 48 h” value was determined as 40.2 ± 1.1% and the “Cell cycle fraction S, 48 h” value came out at 14.3 ± 0.4%. In addition, the “ROS generation (in words)” value in series [4] is on record as “increase the level of ROS”. Moreover, the “reaction with L-cysteine (stability)” value in series [5] is “neither ruthenium 3a nor the osmium complex 3b reacts with those amino acids within 2 h”. In addition, the “reaction with L-histidine (stability)” value in series [6] is recorded as “neither ruthenium 3a nor the osmium complex 3b reacts with those amino acids within 2 h”.
In the case of `CC(C)[C@@H](N=Cc1ccccn1)c1nc2cc(Cl)ccc2c(=O)n1Cc1ccccc1.Cc1ccc(C(C)C)cc1.F[P-](F)(F)(F)(F)F.[Cl-].[Os+2]` [Compound 3b, [(cym)Os((R)-2)Cl]PF6], in series [1], the half-inhibitory concentration (IC50) is 1170 nM and the “activity factor IC50(1)/IC50(3a–4d), SW620C” value was “(0.616)”. Moreover, in series [2], the IC50 was determined as 748 nM and the “activity factor IC50(1)/IC50(3a–4d), SW620Mito” value was “(0.349)”. In series [3], the “Cell cycle fraction G1, 24 h” value is 51.4 ± 1.2%; the “Cell cycle fraction G2/M, 24 h” value is 35.3 ± 1.4%; the “Cell cycle fraction S, 24 h” value amounted to 12.5 ± 2.1%; the “Cell cycle fraction G1, 48 h” value worked out at 41.4 ± 0.7%. Moreover, in series [3], the “Cell cycle fraction G2/M, 48 h” value is reported as 45.0 ± 0.5% and the “Cell cycle fraction S, 48 h” value worked out at 12.7 ± 1.1%. Besides, the “reaction with L-cysteine (stability)” value in series [5] is reported as “neither ruthenium 3a nor the osmium complex 3b reacts with those amino acids within 2 h”. Besides, in series [6], the “reaction with L-histidine (stability)” value is reported as “neither ruthenium 3a nor the osmium complex 3b reacts with those amino acids within 2 h”.
Consider `CC(C)[C@@H](N=Cc1ccccn1)c1nc2cc(Cl)ccc2c(=O)n1Cc1ccccc1.Cc1c(C)c(C)[c-](C)c1C.F[P-](F)(F)(F)(F)F.[Cl-].[Rh+3]` [Compound 3c, [(Cp*)Rh((R)-2)Cl]PF6], for which, in series [1], the IC50 was found to be 592 nM and the “activity factor IC50(1)/IC50(3a–4d), SW620C” value was “(1.22)”. Besides, in series [2], the 50% inhibitory concentration (IC50) came to 524 nM and the “activity factor IC50(1)/IC50(3a–4d), SW620Mito” value is on record as “(0.498)”. In addition, in series [3], the “Cell cycle fraction G1, 24 h” value was determined as 33.9 ± 2.5%; the “Cell cycle fraction G2/M, 24 h” value was 40.9 ± 3.5%; the “Cell cycle fraction S, 24 h” value was 24.2 ± 1.4%; the “Cell cycle fraction G1, 48 h” value was found to be 23.1 ± 1.7%. In addition, in series [3], the “Cell cycle fraction G2/M, 48 h” value worked out at 54.5 ± 1.8% and the “Cell cycle fraction S, 48 h” value was 20.8 ± 2.2%. The “reaction with L-cysteine (stability)” value in series [5] is given as “slowly reacts with L-cysteine”. Moreover, in series [6], the “reaction with L-histidine (stability)” value is on record as “A similar effect is observed in the case of L-histidine”.
Consider `CC(C)[C@@H](N=Cc1ccccn1)c1nc2cc(Cl)ccc2c(=O)n1Cc1ccccc1.Cc1c(C)c(C)[c-](C)c1C.F[P-](F)(F)(F)(F)F.[Cl-].[Ir+3]` [Compound 3d, [(Cp*)Ir((R)-2)Cl]PF6], for which, in series [1], the midpoint of inhibition, the IC50, lay at 335 nM and the “activity factor IC50(1)/IC50(3a–4d), SW620C” value is “(2.15)”. The “higher cytotoxicity than corresponding amine 1, SW620C” value in series [1] (rounded value) is given as 2.2 fold. Moreover, in series [2], half-maximal inhibition (IC50) was put at 268 nM and the “activity factor IC50(1)/IC50(3a–4d), SW620Mito” value was “(0.974)”. Besides, in series [3], the “Cell cycle fraction G1, 24 h” value was determined as 30.8 ± 0.8%; the “Cell cycle fraction G2/M, 24 h” value was found to be 43.4 ± 1.5%; the “Cell cycle fraction S, 24 h” value is 25.4 ± 0.8%; the “Cell cycle fraction G1, 48 h” value was 24.3 ± 1.2%. For the same molecule, in series [3], the “Cell cycle fraction G2/M, 48 h” value amounted to 55.9 ± 1.1% and the “Cell cycle fraction S, 48 h” value is 19.3 ± 0.4%. Besides, in series [5], the “reaction with L-cysteine (stability)” value is “reacts with both L-cysteine and L-histidine (Figure 6) in 40 min”. In addition, in series [6], the “reaction with L-histidine (stability)” value is “reacts with both L-cysteine and L-histidine (Figure 6) in 40 min”.
